Columns and labels:
Format in all cases: in vivo
[1] = system: barnyard grass; experiment: Test Example 1: weedkilling efficacy, preemergent weed treatment in the submerged state; A: barnyard grass; details: treatment dosage 320 g/ha
Method in brief: (§1)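 Pots of alluvial soil flooded 4 cm deep, sown with barnyard grass, bulrush and oval-leafed pondweed and transplanted with 2.5-leaf rice. Emulsified compound applied to the water surface on sowing day at stated g/ha; greenhouse 25–30 °C, effects assessed 3 weeks after treatment.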

[2] = system: soybean; experiment: Test Example 3: soil treatment, effect on crop; d: soybean; details: soil treatment
Method in brief: (§2)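 Crop and weed responses were judged three weeks after a uniform surface spray of the water-diluted emulsion at the given g/ha rate. Seeds sat beneath about 1.5 cm of sterilized diluvial soil, and boxes stood in a greenhouse at 25 to 30° C.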

[3] = system: oval-leafed pondweed; experiment: Test Example 2: weedkilling efficacy, growth period weed treatment in the submerged state; C: oval-leafed pondweed; details: treatment dosage 320 g/ha
Method in brief: (§3)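 Barnyard grass, bulrush and oval-leafed pondweed sown in alluvial soil under 4 cm flooding, greenhouse 25 to 30° C. At 1-2 leaf stage, water-diluted emulsion applied to the water surface at stated g/ha dosages; effects scored 3 weeks later.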

[4] = system: catchweed; experiment: Test Example 3: weedkilling efficacy through soil treatment; O: catchweed; details: soil treatment
Method in brief: as §2

[5] = system: corn; experiment: Test Example 3: soil treatment, effect on crop; c: corn; details: soil treatment
Method in brief: as §2

[6] = system: black-grass; experiment: Test Example 3: weedkilling efficacy through soil treatment; H: black-grass; details: soil treatment
Method in brief: as §2

[7] = system: directly sown rice; experiment: Test Example 3: soil treatment, effect on crop; b: directly sown rice; details: soil treatment
Method in brief: as §2

[8] = system: oval-leafed pondweed; experiment: Test Example 1: weedkilling efficacy, preemergent weed treatment in the submerged state; C: oval-leafed pondweed; details: treatment dosage 320 g/ha
Method in brief: as §1

[9] = system: green foxtail; experiment: Test Example 3: weedkilling efficacy through soil treatment; E: green foxtail; details: soil treatment
Method in brief: as §2

[10] = system: bulrush; experiment: Test Example 2: weedkilling efficacy, growth period weed treatment in the submerged state; B: bulrush; details: treatment dosage 320 g/ha
Method in brief: as §3

[11] = system: beet; experiment: Test Example 3: soil treatment, effect on crop; f: beet; details: soil treatment
Method in brief: as §2

[12] = system: chickweed; experiment: Test Example 3: weedkilling efficacy through soil treatment; N: chickweed; details: soil treatment
Method in brief: as §2

[13] = system: rapeseed; experiment: Test Example 3: soil treatment, effect on crop; g: rapeseed; details: soil treatment
Method in brief: as §2

[14] = system: common wind-grass; experiment: Test Example 3: weedkilling efficacy through soil treatment; J: common wind-grass; details: soil treatment
Method in brief: as §2

[15] = system: wheat; experiment: Test Example 3: soil treatment, effect on crop; e: wheat; details: soil treatment
Method in brief: as §2

[16] = system: Indian mallow; experiment: Test Example 3: weedkilling efficacy through soil treatment; K: Indian mallow; details: soil treatment
Method in brief: as §2

[17] = system: barnyard grass; experiment: Test Example 2: weedkilling efficacy, growth period weed treatment in the submerged state; A: barnyard grass; details: treatment dosage 320 g/ha
Method in brief: as §3

[18] = system: bulrush; experiment: Test Example 1: weedkilling efficacy, preemergent weed treatment in the submerged state; B: bulrush; details: treatment dosage 320 g/ha
Method in brief: as §1

[19] = system: redroot pigweed; experiment: Test Example 3: weedkilling efficacy through soil treatment; L: redroot pigweed; details: soil treatment
Method in brief: as §2

[20] = system: transplanted rice; experiment: Test Example 1: preemergent weed treatment in the submerged state, effect on crop; a: transplanted rice; details: treatment dosage 320 g/ha
Method in brief: as §1

[21] = system: barnyard grass; experiment: Test Example 3: weedkilling efficacy through soil treatment; F: barnyard grass; details: soil treatment
Method in brief: as §2

[22] = system: crabgrass; experiment: Test Example 3: weedkilling efficacy through soil treatment; D: crabgrass; details: soil treatment
Method in brief: as §2

[23] = system: fig-leafed goosefoot; experiment: Test Example 3: weedkilling efficacy through soil treatment; M: fig-leafed goosefoot; details: soil treatment
Method in brief: as §2

[24] = system: birds-eye speedwell; experiment: Test Example 3: weedkilling efficacy through soil treatment; p: birds-eye speedwell; details: soil treatment
Method in brief: as §2

[25] = system: wild oat; experiment: Test Example 3: weedkilling efficacy through soil treatment; G: wild oat; details: soil treatment
Method in brief: as §2

[26] = system: Italian ryegrass; experiment: Test Example 3: weedkilling efficacy through soil treatment; I: Italian ryegrass; details: soil treatment
Method in brief: as §2

Compound | A: barnyard grass, weed kill grade [1] | C (oval-leafed pondweed) weedkilling efficacy grade [3] | O: catchweed, weedkilling efficacy grade ([4]; treatment dosage 320 g/ha) | c: corn, effect on crop grade ([5]; treatment dosage 320 g/ha) | H: black-grass, weedkilling efficacy grade ([6]; treatment dosage 320 g/ha) | b: directly sown rice, effect on crop grade ([7]; treatment dosage 320 g/ha) | C: oval-leafed pondweed, weed kill grade [8] | E: green foxtail, weedkilling efficacy grade ([9]; treatment dosage 320 g/ha) | B (bulrush) weedkilling efficacy grade [10] | f: beet, effect on crop grade ([11]; treatment dosage 320 g/ha) | N: chickweed, weedkilling efficacy grade ([12]; treatment dosage 320 g/ha) | g: rapeseed, effect on crop grade ([13]; treatment dosage 320 g/ha) | J: common wind-grass, weedkilling efficacy grade ([14]; treatment dosage 320 g/ha) | e: wheat, effect on crop grade ([15]; treatment dosage 320 g/ha) | K: Indian mallow, weedkilling efficacy grade ([16]; treatment dosage 320 g/ha) | A (barnyard grass) weedkilling efficacy grade [17] | B: bulrush, weed kill grade [18] | L: redroot pigweed, weedkilling efficacy grade ([19]; treatment dosage 320 g/ha) | a: transplanted rice, effect on crop grade [20] | F: barnyard grass, weedkilling efficacy grade ([21]; treatment dosage 320 g/ha) | further results
CC(C)(C(=O)Nc1ccn(C(F)F)n1)N1COCN(c2ccccc2)C1=O [A-1-04] | 5 (weed kill ratio 90% or more, (practically complete withering)) | 4 (weed kill ratio 70% or more, less than 90%) | 2 (weed kill ratio 20% or more, less than 40%) | 0 (weed kill ratio 5% or less (practically no effect)) | 4 (weed kill ratio 70% or more, less than 90%) | 0 (weed kill ratio 5% or less (practically no effect)) | 4 (weed kill ratio 70% or more, less than 90%) | 3 (weed kill ratio 40% or more, less than 70%) | 4 (weed kill ratio 70% or more, less than 90%) | 3 (weed kill ratio 40% or more, less than 70%) | 4 (weed kill ratio 70% or more, less than 90%) | 4 (weed kill ratio 70% or more, less than 90%) | 5 (weed kill ratio 90% or more, (practically complete withering)) | 0 (weed kill ratio 5% or less (practically no effect)) | 0 (weed kill ratio 5% or less (practically no effect)) | 3 (weed kill ratio 40% or more, less than 70%) | 5 (weed kill ratio 90% or more, (practically complete withering)) | 0 (weed kill ratio 5% or less (practically no effect)) | 0 (weed kill ratio 5% or less (practically no effect)) | 2 (weed kill ratio 20% or more, less than 40%) | d: soybean, effect on crop grade ([2]; treatment dosage 320 g/ha): 2 (weed kill ratio 20% or more, less than 40%); D: crabgrass, weedkilling efficacy grade ([22]; treatment dosage 320 g/ha): 3 (weed kill ratio 40% or more, less than 70%); M: fig-leafed goosefoot, weedkilling efficacy grade ([23]; treatment dosage 320 g/ha): 3 (weed kill ratio 40% or more, less than 70%); P: birds-eye speedwell, weedkilling efficacy grade ([24]; treatment dosage 320 g/ha): 3 (weed kill ratio 40% or more, less than 70%); G: wild oat, weedkilling efficacy grade ([25]; treatment dosage 320 g/ha): 2 (weed kill ratio 20% or more, less than 40%); I: Italian ryegrass, weedkilling efficacy grade ([26]; treatment dosage 320 g/ha): 5 (weed kill ratio 90% or more, (practically complete withering))
CC(C)(C(=O)Nc1nncs1)N1COCN(c2ccccc2)C1=O [A-1-12] | 5 (weed kill ratio 90% or more, (practically complete withering)) | 3 (weed kill ratio 40% or more, less than 70%) | 0 (weed kill ratio 5% or less (practically no effect)) | 0 (weed kill ratio 5% or less (practically no effect)) | 5 (weed kill ratio 90% or more, (practically complete withering)) | 5 (weed kill ratio 90% or more, (practically complete withering)) | 4 (weed kill ratio 70% or more, less than 90%) | 5 (weed kill ratio 90% or more, (practically complete withering)) | 5 (weed kill ratio 90% or more, (practically complete withering)) | 2 (weed kill ratio 20% or more, less than 40%) | 3 (weed kill ratio 40% or more, less than 70%) | 0 (weed kill ratio 5% or less (practically no effect)) | 5 (weed kill ratio 90% or more, (practically complete withering)) | 0 (weed kill ratio 5% or less (practically no effect)) | 0 (weed kill ratio 5% or less (practically no effect)) | 1 (weed kill ratio 5% or more, less than 20%) | 5 (weed kill ratio 90% or more, (practically complete withering)) | 0 (weed kill ratio 5% or less (practically no effect)) | 0 (weed kill ratio 5% or less (practically no effect)) | 3 (weed kill ratio 40% or more, less than 70%) | d: soybean, effect on crop grade ([2]; treatment dosage 320 g/ha): 4 (weed kill ratio 70% or more, less than 90%); M: fig-leafed goosefoot, weedkilling efficacy grade ([23]; treatment dosage 320 g/ha): 4 (weed kill ratio 70% or more, less than 90%); P: birds-eye speedwell, weedkilling efficacy grade ([24]; treatment dosage 320 g/ha): 3 (weed kill ratio 40% or more, less than 70%); G: wild oat, weedkilling efficacy grade ([25]; treatment dosage 320 g/ha): 3 (weed kill ratio 40% or more, less than 70%); I: Italian ryegrass, weedkilling efficacy grade ([26]; treatment dosage 320 g/ha): 5 (weed kill ratio 90% or more, (practically complete withering))
CC(C)(C(=O)Nc1cc(Br)cc(F)n1)N1COCN(c2ccccc2)C1=O [A-2-19] | 5 (weed kill ratio 90% or more, (practically complete withering)) | 5 (weed kill ratio 90% or more, (practically complete withering)) | 4 (weed kill ratio 70% or more, less than 90%) | 2 (weed kill ratio 20% or more, less than 40%) | 5 (weed kill ratio 90% or more, (practically complete withering)) | 0 (weed kill ratio 5% or less (practically no effect)) | 5 (weed kill ratio 90% or more, (practically complete withering)) | 5 (weed kill ratio 90% or more, (practically complete withering)) | 5 (weed kill ratio 90% or more, (practically complete withering)) | 4 (weed kill ratio 70% or more, less than 90%) | 5 (weed kill ratio 90% or more, (practically complete withering)) | 5 (weed kill ratio 90% or more, (practically complete withering)) | 5 (weed kill ratio 90% or more, (practically complete withering)) | 2 (weed kill ratio 20% or more, less than 40%) | 0 (weed kill ratio 5% or less (practically no effect)) | 5 (weed kill ratio 90% or more, (practically complete withering)) | 5 (weed kill ratio 90% or more, (practically complete withering)) | 0 (weed kill ratio 5% or less (practically no effect)) | 3 (weed kill ratio 40% or more, less than 70%) | 5 (weed kill ratio 90% or more, (practically complete withering)) | D: crabgrass, weedkilling efficacy grade ([22]; treatment dosage 320 g/ha): 5 (weed kill ratio 90% or more, (practically complete withering)); M: fig-leafed goosefoot, weedkilling efficacy grade ([23]; treatment dosage 320 g/ha): 4 (weed kill ratio 70% or more, less than 90%); P: birds-eye speedwell, weedkilling efficacy grade ([24]; treatment dosage 320 g/ha): 4 (weed kill ratio 70% or more, less than 90%); G: wild oat, weedkilling efficacy grade ([25]; treatment dosage 320 g/ha): 5 (weed kill ratio 90% or more, (practically complete withering)); I: Italian ryegrass, weedkilling efficacy grade ([26]; treatment dosage 320 g/ha): 5 (weed kill ratio 90% or more, (practically complete withering))
CC(C)(C(=O)Nc1cc(Cl)cc(C2CC2)n1)N1COCN(c2ccccc2)C1=O [A-2-29] |  |  |  |  |  |  |  |  |  |  |  |  |  |  |  |  |  |  |  |  | d: soybean, effect on crop grade ([2]; treatment dosage 230 g/ha): 0 (weed kill ratio 5% or less (practically no effect)); O: catchweed, weedkilling efficacy grade ([4]; treatment dosage 230 g/ha): 3 (weed kill ratio 40% or more, less than 70%); c: corn, effect on crop grade ([5]; treatment dosage 230 g/ha): 1 (weed kill ratio 5% or more, less than 20%); H: black-grass, weedkilling efficacy grade ([6]; treatment dosage 230 g/ha): 5 (weed kill ratio 90% or more, (practically complete withering)); b: directly sown rice, effect on crop grade ([7]; treatment dosage 230 g/ha): 1 (weed kill ratio 5% or more, less than 20%); E: green foxtail, weedkilling efficacy grade ([9]; treatment dosage 230 g/ha): 5 (weed kill ratio 90% or more, (practically complete withering)); f: beet, effect on crop grade ([11]; treatment dosage 230 g/ha): 3 (weed kill ratio 40% or more, less than 70%); N: chickweed, weedkilling efficacy grade ([12]; treatment dosage 230 g/ha): 4 (weed kill ratio 70% or more, less than 90%); g: rapeseed, effect on crop grade ([13]; treatment dosage 230 g/ha): 4 (weed kill ratio 70% or more, less than 90%); J: common wind-grass, weedkilling efficacy grade ([14]; treatment dosage 230 g/ha): 5 (weed kill ratio 90% or more, (practically complete withering)); e: wheat, effect on crop grade ([15]; treatment dosage 230 g/ha): 0 (weed kill ratio 5% or less (practically no effect)); K: Indian mallow, weedkilling efficacy grade ([16]; treatment dosage 230 g/ha): 3 (weed kill ratio 40% or more, less than 70%); L: redroot pigweed, weedkilling efficacy grade ([19]; treatment dosage 230 g/ha): 2 (weed kill ratio 20% or more, less than 40%); F: barnyard grass, weedkilling efficacy grade ([21]; treatment dosage 230 g/ha): 5 (weed kill ratio 90% or more, (practically complete withering)); D: crabgrass, weedkilling efficacy grade ([22]; treatment dosage 230 g/ha): 5 (weed kill ratio 90% or more, (practically complete withering)); M: fig-leafed goosefoot, weedkilling efficacy grade ([23]; treatment dosage 230 g/ha): 3 (weed kill ratio 40% or more, less than 70%); P: birds-eye speedwell, weedkilling efficacy grade ([24]; treatment dosage 230 g/ha): 5 (weed kill ratio 90% or more, (practically complete withering)); G: wild oat, weedkilling efficacy grade ([25]; treatment dosage 230 g/ha): 3 (weed kill ratio 40% or more, less than 70%); I: Italian ryegrass, weedkilling efficacy grade ([26]; treatment dosage 230 g/ha): 5 (weed kill ratio 90% or more, (practically complete withering))

Reference: patent US9738634B2, “Heterocyclic amide compound and herbicide” (SYNGENTA PARTICIPATIONS AG, priority 2013, dated 2017)
